The assay relates to western and northern corn rootworm. Put plainly: Field trial (Example 3): corn rootworm damage by Iowa class, percent of control and synergy threshold. Type of assay: in vivo. Here is the method:
A field trial was established and completed in accordance with pertinent protocols and in conformance with USDA notification requirements. The purpose of the trial was to determine the efficacy of transgenic event Cry3Bb.11231 in corn seed in combination with corn rootworm seed treatments using imidacloprid.
All seed treatments with pesticides were carried out as described in Example 1. In seed treatment number 1 and 2, Gaucho® was used for wire worm protection, but at levels sufficiently low that it would be expected to have no effect on corn rootworms (i.e., at a treatment level of about 60 gm of active/100 kg seed or 0.16 mg active/kernel), otherwise, seed receiving treatment number 2 had only transgenic event Cry3Bb.11231 and no pesticide treatment that would be expected to be effective against corn rootworm.
For seeds having treatments numbered 3 through 5, the pesticides were applied by the methods described in Example 1. For seeds having treatment numbers 6 and 7, commercially available Force® 3 G and Lorsban® 15 G were applied to the soil in a 5″ band at the time of sowing. The levels of application are as shown and are within the ranges recommended for standard commercial practice.
Corn seeds to be tested were planted and grown at four different locations across several Midwestern states in the United States corn belt according to the protocol described above.
The determination of damage by corn root worm was made according to the protocol described in Example 2.
The combination of imidacloprid seed treatment with corn seed having a Cry3Bb.11231 transgenic event was tested for possible synergy at a level of rootworm damage of 3-6. In the first test, shown in Table 2, the percentage of test plants having damage levels of from 3 to 6, on the Iowa 1-6 Scale, was determined for the control and for seeds treated with the pesticide at two levels, and for seeds having the transgenic event, alone and in combination. The following formula was then used to calculate a “synergy threshold”: (% of control Cry3Bb.11231)*(% of control imidacloprid treatment)/100.
This threshold was compared against the percent of control for the treatment combination (i.e., Cry3Bb.11231 with imidacloprid @ 400 gm/100 kg). If the treatment combination percent of control was below the threshold, then it was concluded that there was synergy.
It was believed that the measurement of rootworm damage at higher damage levels (i.e., levels 3-6) is a useful indicator that correlates with subsequent yield loss due to such damage. The reason for this is that rootworm damage at levels 1 and 2 seldom causes corn plants to fall over and lodge, and such minimal root loss is not believed to reduce the number or weight of kernels per ear. However, root damage at levels of 3 and above increasingly causes lodging and loss of yield. Therefore, it is believed that the summed damage levels of 3-6 (and in some cases, 4-6 and 5 and 6), provides a useful indication of the effect of corn rootworm damage on subsequent corn yield.

The results in this text go back to US10036036B1, “Compositions and methods for deploying a transgenic refuge as a seed blend” (priority 2007, dated 2018).

On to `O=[N+]([O-])NC1=NCCN1Cc1ccc(Cl)nc1` [Imidacloprid, 1-[(6-chloro-3-pyridinyl)methol]-N-nitro-2-imidazolidinimime], for which the “PERCENT OF CONTROL” value reads like this: (Table 2, plants with damage levels 3-6 relative to isohybrid control) 80.5%; (Table 3, damage levels 3-6 relative to untreated control) 80.5%. The “NUMBER OF PLANTS HAVING 3-6 DAMAGE LEVEL” value (Table 3, damage levels 3-6 on Iowa 1-6 scale) was 71.7. For the same compound, the “CORN ROOTWORM DAMAGE IN EACH IOWA CLASS (IOWA 1-6 SCALE): 1” value (count of plants in Iowa class 1) is given as 3. Also, the “CORN ROOTWORM DAMAGE IN EACH IOWA CLASS (IOWA 1-6 SCALE): 2” value (count of plants in Iowa class 2) turned out to be 15. The “CORN ROOTWORM DAMAGE IN EACH IOWA CLASS (IOWA 1-6 SCALE): 3” value (count of plants in Iowa class 3) was determined as 36. The “CORN ROOTWORM DAMAGE IN EACH IOWA CLASS (IOWA 1-6 SCALE): 4” value (count of plants in Iowa class 4) is on record as 21. Moreover, under “count of plants in Iowa class 5”, the “CORN ROOTWORM DAMAGE IN EACH IOWA CLASS (IOWA 1-6 SCALE): 5” value was determined as 5. Moreover, the “CORN ROOTWORM DAMAGE IN EACH IOWA CLASS (IOWA 1-6 SCALE): 6” value (count of plants in Iowa class 6) was 0.
